Earlier results, collected in patent US11629364B2, “Methods for synthesizing anticoagulant polysaccharides” (OPTIMVIA, LLC, priority 2019, dated 2023).

Conditions: pH 8.0

## Nc1ncnc2c1ncn2[C@@H]1O[C@H](COP(=O)(O)OS(=O)(=O)O)[C@@H](OP(=O)(O)O)[C@H]1O [PAPS, 3′-phosphoadenosine 5′-phosphosulfate]
  half-life of PAPS: about 20 hours
